Assay [1] deals with T1, FXa (Homo sapiens, UniProt P00742).
T1 construct: purchased Haematologic Technologies (Essex Junction, VT, USA)
Description: Chromogenic substrate assay, Ki determination, Factor Xa. The class given is biochemical. As for the experimental part:
The inhibitor (I) constants (Ki) were determined for the inhibition of a series of human enzymes (FXa, thrombin, trypsin, plasmin, protein Ca, streptokinase, tPA, and urokinase) by each compound. Chromogenic substrate assays were performed using a Labsystems IEMS (Cergy Pontoise, France) microtiter plate reader. In each assay, the compound was tested at a minimum of seven concentrations in duplicate to obtain an inhibition curve. Assays were performed according to the following general procedure. In a 96-well microtiter plate, 25 μL of compound, inhibitor solution or buffer was added to 50 μL of substrate. A volume of 25 μL of enzyme solution was added just before the plate was placed in the microtiter plate reader for 1 h at 37 °C. The hydrolysis of the substrate yields p-nitroaniline, which was continuously monitored spectrophotometrically at 405 nm. Data were collected and the initial rate of substrate hydrolysis [Vo (mOD/minute)] was calculated. Following Michaelis-Menten kinetics, the affinity of the enzyme for the substrate, in the absence of the inhibitor (Km) and in the presence of an inhibitor (Kp), was determined to be the negative inverse x-intercept of Lineweaver–Burk plots. The dissociation constant for inhibition (Ki) was calculated using the following equation: Ki = (Km·[I])/(Kp − Km) as described by Williams and Morrison[40].

For assay [2], the target named is T1, FXa. Description: Inhibition of amidolytic activity of FXa toward S-2222 (Michaelis-Menten, Lineweaver-Burk; with or without TFPI). The class given is biochemical. As to conditions: for slope of inhibition activity plot: FXa. As for the experimental part:
To elucidate the mechanisms responsible for inhibition of coagulation and platelet aggregation by compounds 1–4, inhibition of FXa activity was determined using chromogenic substrates. […] We observed a decrease in Vmax, with no effect on the Km of FXa toward S-2222 in the presence of compound 1. […] We also observed a slope of 0.401 for the control without compound 2, and slopes of 0.442 and 0.465 for compound 2 at concentrations of 2 and 5 µM, respectively. […] We observed a decrease in Vmax, with no effect on the Km of FXa toward S-2222 in the presence of compound 2. […] Inhibition activity plots were obtained for different concentrations of compound 3, showing a slope of 0.388 for the control without compound 3, and slopes of 0.408 and 0.464 for compound 3 at concentrations of 2 and 5 µM, respectively. […] We also observed a slope of 0.363 for the control without compound 4, and slopes of 0.376 and 0.398 for compound 4 at concentrations of 2 and 5 µM, respectively. […] We observed a decrease in Vmax, with no effect on the Km of FXa toward S-2222 in the presence of compound 4.
(§1) Figure 6 Effects of compounds 1–4 on inhibition and production of FXa. […] The plots represent means of three independent measurements. (E) Human umbilical vein endothelial cells (HUVECs) were pre-incubated with the indicated concentration of each compound for 10 min. HUVECs stimulated with tumor necrosis factor-α (TNF-α, 10 ng/mL for 6 h) were incubated with FVIIa (10 nM) and FX (175 nM) in the absence or presence of anti-TF IgG (25 µg/mL). FXa production was determined as described in the “ Supplementary Materials and Methods” section. D = 0.2% DMSO used as the vehicle control. (F) Inhibition of FXa by each compound (5 μM) with or without TFPI (2 nM) was monitored using a chromogenic assay. ^* p < 0.05 vs. TNF-α alone (E) or each compound (F) alone, analyzed via one-way ANOVA, followed by Tukey multiple comparison testing.
Each compound with or without TFPI was dissolved in 50 mM Tris-HCl buffer (pH 7.4) containing 7.5 mM EDTA and 150 mM NaCl. Following a 2-min incubation at 37 °C, FXa solution (150 μL, 1 U/mL) was added, followed by incubation at 37 °C for 1 min. S-2222 (an FXa substrate, 150 μL, 1.5 mM) solution was subsequently added, and the absorbance at 405 nm was monitored for 20 min using a spectrophotometer (TECAN, Männedorf, Switzerland). The absorbance-time curve and the slope of the curve (Vi) were used to represent the activity of the enzyme. Distilled water served as a control (the slope of curve V0). The inhibitory effect was calculated according to equation (1):1 Inhibitoryrate(%)=(V0−Vi)/V0×100 where V0 represents the slope of the vehicle and Vi represents the slope of the samples.

For a further assay, the system named is HUVECs. Put plainly: Production of factor Xa on the surface of TNF-α-stimulated HUVECs. The class given is cell-based, human. As to conditions: 10 min pre-incubation. The procedure:
as §1
Production of FXa by FVIIa is dependent on tissue factor (TF) expression in tumor necrosis factor-α (TNF-α)-stimulated HUVECs[22]. Thus, we investigated the effects of compounds 1–4 on the production of FXa by FVIIa. HUVECs were stimulated with TNF-α to induce TF expression, causing an 11.9-fold increase in the rate of FX production by FVIIa (109.4 ± 9.2 nM) over that of non-stimulated HUVECs (9.2 ± 0.8 nM). […] We next determined whether each compound compete with tissue factor pathway inhibitor (TFPI) in the inhibition of FXa. […]

SMILES strings stand for the structures.

One may read the Ki as the dissociation constant of the complex between target and ligand, obtained from inhibition or displacement. Low readings indicate higher affinity, high ones lower affinity.

T1 sequence (P00742 235-488 limits assumed): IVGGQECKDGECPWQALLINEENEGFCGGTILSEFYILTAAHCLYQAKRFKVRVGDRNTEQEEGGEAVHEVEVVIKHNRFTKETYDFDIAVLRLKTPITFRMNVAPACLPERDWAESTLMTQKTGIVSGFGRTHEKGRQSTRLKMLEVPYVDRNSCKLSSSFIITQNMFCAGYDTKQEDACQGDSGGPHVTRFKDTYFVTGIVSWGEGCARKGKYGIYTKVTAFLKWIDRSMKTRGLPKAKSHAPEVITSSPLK
T1 sequence (P00742 41-179 limits assumed): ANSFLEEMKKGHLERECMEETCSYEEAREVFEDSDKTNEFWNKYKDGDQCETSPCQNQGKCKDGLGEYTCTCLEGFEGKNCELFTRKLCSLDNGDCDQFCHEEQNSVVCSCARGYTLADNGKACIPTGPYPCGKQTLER

In the case of `CC(=O)NCCc1ccc2c(c1)O[C@H](c1ccc(O)c(O)c1)[C@H](NC(C)=O)O2` [Compound 1, (2 R,3 R)-2-(3′,4′-dihydroxyphenyl)-3-acetylamino-7-(N-acetyl-2″-aminoethyl)-1,4-benzodioxane], the “Ratio = Ki enzyme/Ki Factor Xa, Factor Xa” value on FXa [1] was found to be 1. Besides, the Ki is 2960 ± 250 nM on FXa [1] (substrate S-2765 (Table 3), mean ± SD (n = 5)) and 2960 nM at FXa [2] (substrate S-2222). On FXa [2], the “Km of FXa toward S-2222 in the presence of compound” value is given as “no effect”. The “Vmax of FXa toward S-2222 in the presence of compound” value on FXa [2] is “decrease”. Also, the “type of inhibition of FXa (Lineweaver-Burk plots)” value at FXa [2] (S-2222) is reported as “noncompetitive inhibition”. Also, the “slope of inhibition activity plot” value at FXa [2] (compound at 2 µM, S-2222) is listed as 0.707; on FXa [2] (compound at 5 µM, S-2222) it was 0.957. Moreover, the “inhibition of FXa production (generation) by FVIIa in HUVECs” value with HUVECs is “strongest inhibition”.

These data come from article PMC5554137, “Evaluation of novel factor Xa inhibitors from Oxya chinensis sinuosa with anti-platelet aggregation activity” (Scientific Reports, 2017).
